Test results: patent US9108944B2, “Androgen receptor modulators and uses thereof” (ARAGON PHARMACEUTICALS, INC., priority 2010, dated 2015)

How the values were obtained:
AR-VP16 [1] = target: T1, AR-VP16 (Homo sapiens, UniProt P10275); assay: AR-VP16 DNA Binding Assay, agonist mode (HepG2 cells); format: cell-based; conditions: Emax >20x DMSO control = agonist
T1 sequence (P10275 560-920 limits assumed): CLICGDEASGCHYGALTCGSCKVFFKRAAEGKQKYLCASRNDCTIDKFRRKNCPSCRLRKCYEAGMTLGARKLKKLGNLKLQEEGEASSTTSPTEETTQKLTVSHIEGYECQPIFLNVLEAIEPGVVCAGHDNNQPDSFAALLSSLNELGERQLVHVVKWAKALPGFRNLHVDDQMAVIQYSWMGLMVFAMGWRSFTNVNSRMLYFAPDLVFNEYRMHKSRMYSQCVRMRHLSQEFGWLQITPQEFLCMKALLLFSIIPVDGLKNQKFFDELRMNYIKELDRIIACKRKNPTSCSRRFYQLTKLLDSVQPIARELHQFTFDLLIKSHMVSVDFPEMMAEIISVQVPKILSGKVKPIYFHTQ

AR-VP16 [2] = target: T1, AR-VP16; assay: AR-VP16 DNA Binding Assay, antagonist mode (HepG2 cells, 0.1 nM R1881); format: cell-based
Outline: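 HepG2 cells transiently transfected with AR-VP16 (Lipofectin), incubated overnight, then treated with compound in RPMI with charcoal-stripped serum. Antagonist mode adds R1881 at 0.1 nM final. Cells lysed after 48 h incubation for read-out.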

Compound | ARVP16 DNA Binding Assay (Agonist mode): Agonist? (AR-VP16 [1]) | IC50 (AR-VP16 [2]) [nM]
N#Cc1ncc(N2C(=O)C3(CCC3)N(c3ccc(CO)cc3)C2=S)cc1C(F)(F)F [Compound 69, 5-(5-(4-(Hydroxymethyl)phenyl)-8-oxo-6-thioxo-5,7-diazaspiro[3.4]octan-7-yl)-3-(trifluoromethyl)picolinonitrile] | No (Agonist defined as a compound whose Emax in the ARVP16 DNA Binding Assay (Agonist mode) is >20x DMSO control) | < 1000
COC(=O)c1ccc(N2C(=S)N(c3cnc(C#N)c(C)c3)C(=O)C23CCC3)c(F)c1 [Compound 71, Methyl 4-(7-(6-cyano-5-methylpyridin-3-yl)-8-oxo-6-thioxo-5,7-diazaspiro[3.4]octan-5-yl)-3-fluorobenzoate] | No (Agonist defined as a compound whose Emax in the ARVP16 DNA Binding Assay (Agonist mode) is >20x DMSO control) | > 1000
N#Cc1ncc(N2C(=O)C3(CCC3)N(c3cccc(F)c3F)C2=S)cc1C(F)(F)F [Compound 72, 5-(5-(2,3-Difluorophenyl)-8-oxo-6-thioxo-5,7-diazaspiro[3.4]octan-7-yl)-3-(trifluoromethyl)picolinonitrile] | Yes (Agonist defined as a compound whose Emax in the ARVP16 DNA Binding Assay (Agonist mode) is >20x DMSO control) | < 1000
N#Cc1ncc(N2C(=O)C3(CCC3)N(c3c(F)cccc3F)C2=S)cc1C(F)(F)F [Compound 73, 5-(5-(2,6-Difluorophenyl)-8-oxo-6-thioxo-5,7-diazaspiro[3.4]octan-7-yl)-3-(trifluoromethyl)picolinonitrile] | Yes (Agonist defined as a compound whose Emax in the ARVP16 DNA Binding Assay (Agonist mode) is >20x DMSO control) | < 1000
N#Cc1ncc(N2C(=O)C3(CCC3)N(c3ccc(F)cc3F)C2=S)cc1C(F)(F)F [Compound 76, 5-(5-(2,4-Difluorophenyl)-8-oxo-6-thioxo-5,7-diazaspiro[3.4]octan-7-yl)-3-(trifluoromethyl)picolinonitrile] | Yes (Agonist defined as a compound whose Emax in the ARVP16 DNA Binding Assay (Agonist mode) is >20x DMSO control) | < 1000
Cc1cc(N2C(=O)C3(CCC3)N(c3ccc(O)cc3)C2=S)cnc1C#N [Compound 77, 5-(5-(4-hydroxyphenyl)-8-oxo-6-thioxo-5,7-diazaspiro[3.4]octan-7-yl)-3-methylpicolinonitrile] | No (Agonist defined as a compound whose Emax in the ARVP16 DNA Binding Assay (Agonist mode) is >20x DMSO control) | > 1000
CNC(=O)c1ccc(N2C(=S)N(c3cnc(C#N)c(C)c3)C(=O)C23CCC3)cc1 [Compound 78, 4-(7-(6-Cyano-5-methylpyridin-3-yl)-8-oxo-6-thioxo-5,7-diazaspiro[3.4]octan-5-yl)-N-methylbenzamide] | No (Agonist defined as a compound whose Emax in the ARVP16 DNA Binding Assay (Agonist mode) is >20x DMSO control) | > 1000
N#Cc1ncc(N2C(=O)C3(CCC3)N(c3ccc(S(N)(=O)=O)cc3)C2=S)cc1C(F)(F)F [Compound 81, 4-(7-(6-cyano-5-(trifluoromethyl)pyridin-3-yl)-8-oxo-6-thioxo-5,7-diazaspiro-[3.4]octan-5-yl)benzenesulfonamide] | No (Agonist defined as a compound whose Emax in the ARVP16 DNA Binding Assay (Agonist mode) is >20x DMSO control) | > 1000
CNC(=O)c1ccc(N2C(=S)N(c3ccc(C#N)n4nccc34)C(=O)C23CCC3)cc1F [Compound 83, 4-(7-(7-Cyanopyrazolo[1,5-a]pyridin-4-yl)-8-oxo-6-thioxo-5,7-diazaspiro[3.4]octan-5-yl)-2-fluoro-N-methylbenzamide] | No (Agonist defined as a compound whose Emax in the ARVP16 DNA Binding Assay (Agonist mode) is >20x DMSO control) | > 1000
Cc1ccc(CN2C(=S)N(c3cnc(C#N)c(C(F)(F)F)c3)C(=O)C23CCC3)cc1 [Compound 84, 5-(5-(4-Methylbenzyl)-8-oxo-6-thioxo-5,7-diazaspiro[3.4]octan-7-yl)-3-(trifluoromethyl)picolinonitrile] | Yes (Agonist defined as a compound whose Emax in the ARVP16 DNA Binding Assay (Agonist mode) is >20x DMSO control) | < 1000
Cc1ccc(CCN2C(=S)N(c3cnc(C#N)c(C(F)(F)F)c3)C(=O)C23CCC3)cc1 [Compound 85, 5-(5-(4-Methylphenethyl)-8-oxo-6-thioxo-5,7-diazaspiro[3.4]octan-7-yl)-3-(trifluoromethyl)picolinonitrile] | Yes (Agonist defined as a compound whose Emax in the ARVP16 DNA Binding Assay (Agonist mode) is >20x DMSO control) | < 1000
N#Cc1ncc(N2C(=O)C3(CCC3)N(c3ccc(CCCO)cc3)C2=S)cc1C(F)(F)F [Compound 86, 5-(5-(4-(3-hydroxypropyl)phenyl)-8-oxo-6-thioxo-5,7-diazaspiro[3.4]octan-7-yl)-3-(trifluoromethyl)picolinonitrile] | No (Agonist defined as a compound whose Emax in the ARVP16 DNA Binding Assay (Agonist mode) is >20x DMSO control) | < 1000
N#Cc1ncc(N2C(=O)C3(CCC3)N(c3ccc4cn[nH]c4c3)C2=S)cc1C(F)(F)F [Compound 88, 5-(5-(1H-Indazol-6-yl)-8-oxo-6-thioxo-5,7-diazaspiro[3.4]octan-7-yl)-3-(trifluoromethyl)picolinonitrile] | No (Agonist defined as a compound whose Emax in the ARVP16 DNA Binding Assay (Agonist mode) is >20x DMSO control) | < 1000
CNC(=O)c1ccc(N2C(=S)N(c3cnc(C#N)c(C(F)(F)F)c3)C(=O)C23CCC3)c(F)c1 [Compound 89, 4-(7-(6-Cyano-5-(trifluoromethyl)pyridin-3-yl)-8-oxo-6-thioxo-5,7-diazaspiro[3.4]octan-5-yl)-3-fluoro-N-methylbenzamide] | No (Agonist defined as a compound whose Emax in the ARVP16 DNA Binding Assay (Agonist mode) is >20x DMSO control) | < 1000
CN1CCN(c2ccc(N3C(=S)N(c4cnc(C#N)c(C(F)(F)F)c4)C(=O)C34CCC4)cc2)CC1 [Compound 90, 5-(5-(4-(4-Methylpiperazin-1-yl)phenyl)-8-oxo-6-thioxo-5,7-diazaspiro[3.4]octan-7-yl)-3-(trifluoromethyl)picolinonitrile] | No (Agonist defined as a compound whose Emax in the ARVP16 DNA Binding Assay (Agonist mode) is >20x DMSO control) | > 1000
N#Cc1ncc(N2C(=O)C3(CCC3)N(c3ccc(S(=O)(=O)CCc4ccncc4)cc3)C2=S)cc1C(F)(F)F [Compound 91, 5-(8-Oxo-5-(4-((2-(pyridin-4-yl)ethyl)sulfonyl)phenyl)-6-thioxo-5,7-diazaspiro[3.4]octan-7-yl)-3-(trifluoromethyl)picolinonitrile] | No (Agonist defined as a compound whose Emax in the ARVP16 DNA Binding Assay (Agonist mode) is >20x DMSO control) | > 1000
CN1CCN(Cc2ccc(N3C(=S)N(c4cnc(C#N)c(C(F)(F)F)c4)C(=O)C34CCC4)cc2)CC1 [Compound 93, 5-(5-(4-((4-Methylpiperazin-1-yl)methyl)phenyl)-8-oxo-6-thioxo-5,7-diazaspiro[3.4]octan-7-yl)-3-(trifluoromethyl)picolinonitrile] | No (Agonist defined as a compound whose Emax in the ARVP16 DNA Binding Assay (Agonist mode) is >20x DMSO control) | > 1000
Cc1ccc(-c2ccc(N3C(=S)N(c4cnc(C#N)c(C)c4)C(=O)C34CCC4)cc2)cn1 [Compound 96, 3-Methyl-5-(5-(4-(6-methylpyridin-3-yl)phenyl)-8-oxo-6-thioxo-5,7-diazaspiro[3.4]octan-7-yl)picolinonitrile] | No (Agonist defined as a compound whose Emax in the ARVP16 DNA Binding Assay (Agonist mode) is >20x DMSO control) | < 1000
Cc1ccncc1-c1ccc(N2C(=S)N(c3cnc(C#N)c(C)c3)C(=O)C23CCC3)cc1 [Compound 97, 3-Methyl-5-(5-(4-(4-methylpyridin-3-yl)phenyl)-8-oxo-6-thioxo-5,7-diazaspiro[3.4]octan-7-yl)picolinonitrile] | Yes (Agonist defined as a compound whose Emax in the ARVP16 DNA Binding Assay (Agonist mode) is >20x DMSO control) | < 1000
Cc1cc(N2C(=O)C3(CCC3)N(c3ccc(-c4cccnc4C)cc3)C2=S)cnc1C#N [Compound 99, 3-Methyl-5-(5-(4-(2-methylpyridin-3-yl)phenyl)-8-oxo-6-thioxo-5,7-diazaspiro[3.4]octan-7-yl)picolinonitrile] | Yes (Agonist defined as a compound whose Emax in the ARVP16 DNA Binding Assay (Agonist mode) is >20x DMSO control) | < 1000
Cc1cc(N2C(=O)C(C)(C)N(c3ccc(O)cc3)C2=S)cnc1C#N [Compound 101, 5-(3-(4-Hydroxyphenyl)-4,4-dimethyl-5-oxo-2-thioxoimidazolidin-1-yl)-3-methylpicolinonitrile] | No (Agonist defined as a compound whose Emax in the ARVP16 DNA Binding Assay (Agonist mode) is >20x DMSO control) | > 1000
